According to ChEMBL document CHEMBL1201862, “PubChem BioAssay data set” (2004):
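Exposure lasted 48 hours, with cells grown in 96-well plates and compounds tested at five concentrations. GI50 marks 50% less growth.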 Calls of active or inactive are those of the source. No stated cut-off is given here; in the data, active = GI50 up to about 1.1 µM and inactive = higher.

Experiments:
Assay in all cases: DTP human tumour cell line panel, 48 h
OVCAR-8 = tested on: OVCAR-8
IGROV-1 = tested on: IGROV-1
M14 = tested on: M14
KM12 = tested on: KM12
SNB-19 = tested on: SNB-19
LOX IMVI = tested on: LOX IMVI
NCI/ADR-RES = tested on: NCI/ADR-RES
PC-3 = tested on: PC-3
CCRF-CEM = tested on: CCRF-CEM
786-0 = tested on: 786-0
TK-10 = tested on: TK-10
HT-29 = tested on: HT-29
UACC-62 = tested on: UACC-62
SK-OV-3 = tested on: SK-OV-3
Hs-578T = tested on: Hs-578T
OVCAR-3 = tested on: OVCAR-3
SK-MEL-5 = tested on: SK-MEL-5
UACC-257 = tested on: UACC-257
MOLT-4 = tested on: MOLT-4
SN12C = tested on: SN12C

Row | Structure (SMILES) | GI50 (OVCAR-8) | GI50 (IGROV-1) | GI50 (M14) | GI50 (KM12) | GI50 (SNB-19) | GI50 (LOX IMVI) | GI50 (NCI/ADR-RES) | GI50 (PC-3) | GI50 (CCRF-CEM) | GI50 (786-0) | GI50 (TK-10) | GI50 (HT-29) | GI50 (UACC-62) | GI50 (SK-OV-3) | GI50 (Hs-578T) | GI50 (OVCAR-3) | GI50 (SK-MEL-5) | GI50 (UACC-257) | GI50 (MOLT-4) | GI50 (SN12C)
1 | Oc1ccc2c(c1)-c1c(c3ccccc3n1CCN1CCOCC1)CC2 | 33.2 µM (inactive) | 15.3 µM (inactive) | 27.2 µM (inactive) | 20 µM (inactive) | 38.6 µM (inactive) | 39.7 µM (inactive) | 32.7 µM (inactive) | 32.2 µM (inactive) | > 100 µM (inactive) | 33.7 µM (inactive) | 28.6 µM (inactive) | 39.6 µM (inactive) | 27.5 µM (inactive) | 27.5 µM (inactive) | 63.4 µM (inactive) | 33.5 µM (inactive) | 40.6 µM (inactive) | 27.9 µM (inactive) | > 100 µM (inactive) | > 100 µM (inactive)
2 | O=S1(=O)c2ccccc2NC(=S)N1c1ccccc1 | 34.6 µM (inactive) | 2.45 µM (inactive) | 29.5 µM (inactive) | > 77.1 µM (inactive) | 7.1 µM (inactive) | 26.7 µM (inactive) | 60.1 µM (inactive) | 58.3 µM (inactive) | 54.1 µM (inactive) | > 87.3 µM (inactive) | > 72.4 µM (inactive) | > 13.4 µM (inactive) | 65.9 µM (inactive) | > 100 µM (inactive) | 69.2 µM (inactive) | 41.4 µM (inactive) | 32 µM (inactive) | 40 µM (inactive) | 29.5 µM (inactive) | 62.2 µM (inactive)
3 | C=C1CCCC(C)(C)C1CCC1(C)CCC(C(C)C(=O)OC)OO1 (stereo not given) | 6.62 µM (inactive) | 0.63 µM (active) | 9.66 µM (inactive) | 0.948 µM (active) | 9.08 µM (inactive) | 0.471 µM (active) | 7.08 µM (inactive) | 3.74 µM (inactive) | 2.43 µM (inactive) | 0.36 µM (active) | 4.28 µM (inactive) | 2.04 µM (inactive) | 5.62 µM (inactive) | 4.4 µM (inactive) | 5.57 µM (inactive) | 21.8 µM (inactive) | 5.19 µM (inactive) | > 20.2 µM (inactive) | 8.11 µM (inactive) | 3.77 µM (inactive)
4 | O=c1[nH]c(N/N=C\C(=N/Nc2nc3ccccc3c(=O)[nH]2)C(O)C(O)C(O)CO)nc2ccccc12 (stereo not given) | > 100 µM (inactive) | > 100 µM (inactive) | > 100 µM (inactive) | > 100 µM (inactive) | > 100 µM (inactive) | > 100 µM (inactive) | > 100 µM (inactive) | > 100 µM (inactive) | > 100 µM (inactive) | > 100 µM (inactive) | > 100 µM (inactive) | > 100 µM (inactive) | > 100 µM (inactive) | > 100 µM (inactive) | > 100 µM (inactive) | > 100 µM (inactive) | > 100 µM (inactive) | > 100 µM (inactive) | > 100 µM (inactive) | > 100 µM (inactive)
5 | CC(C)(C)N(Cc1ccccc1)C(=O)/C=C\[S+]([O-])c1ccccc1 (stereo not given) | 1.84 µM (inactive) | 4.79 µM (inactive) | 2.51 µM (inactive) | 5.69 µM (inactive) | 9.77 µM (inactive) | 1.73 µM (inactive) | 2.55 µM (inactive) | 3.56 µM (inactive) | 1.35 µM (inactive) | 1.83 µM (inactive) | 6.75 µM (inactive) | 4.11 µM (inactive) | 4.39 µM (inactive) | 7.62 µM (inactive) | 2.07 µM (inactive) | 2.48 µM (inactive) | 5.25 µM (inactive) | 5.08 µM (inactive) | 2.03 µM (inactive) | 2.61 µM (inactive)
6 | CSCCCNC(=O)[C@H](CSC)NC(=O)c1csc(CCNC(=O)[C@@H](NSc2ccccc2[N+](=O)[O-])C(C)O)n1 (stereo not given in full) | > 100 µM (inactive) | > 100 µM (inactive) | > 100 µM (inactive) | > 100 µM (inactive) | > 100 µM (inactive) | > 100 µM (inactive) | > 100 µM (inactive) | > 100 µM (inactive) | > 100 µM (inactive) | > 100 µM (inactive) | > 100 µM (inactive) | > 100 µM (inactive) | > 100 µM (inactive) | > 100 µM (inactive) | > 100 µM (inactive) | > 100 µM (inactive) | > 100 µM (inactive) | > 100 µM (inactive) | > 100 µM (inactive) | > 100 µM (inactive)
7 | O=C1C=CC(=O)[C@H]2C3C=CC(C4C3C3(Cl)C(Cl)=C(Cl)[C@]4(Cl)C3(Cl)Cl)[C@@H]12 (stereo not given in full) | 8.47 µM (inactive) | 5.79 µM (inactive) | 4.3 µM (inactive) | 4.92 µM (inactive) | 5.62 µM (inactive) | 3.32 µM (inactive) | 5.83 µM (inactive) | 4.94 µM (inactive) | 2.95 µM (inactive) | 5.94 µM (inactive) | 16.8 µM (inactive) | 3.66 µM (inactive) | 8.83 µM (inactive) | 14.2 µM (inactive) | 10.9 µM (inactive) | 2.95 µM (inactive) | 3.55 µM (inactive) | 2.32 µM (inactive) | 3.75 µM (inactive) | 5.58 µM (inactive)
8 | CC(C)(C)OC(=O)NC(Cc1ccc(OCc2ccccc2)cn1)C(=O)N1CCSCC1 (stereo not given) | 40.1 µM (inactive) | 75.9 µM (inactive) | 54.8 µM (inactive) | 36.4 µM (inactive) | > 100 µM (inactive) | 28.3 µM (inactive) | 27.7 µM (inactive) | 31.4 µM (inactive) | 29.9 µM (inactive) | 57.9 µM (inactive) | 47.3 µM (inactive) | 32.7 µM (inactive) | 52.5 µM (inactive) | 86.3 µM (inactive) | 77.3 µM (inactive) | 62.2 µM (inactive) | 16.3 µM (inactive) | 26.4 µM (inactive) | 22.9 µM (inactive) | 44.6 µM (inactive)
9 | Cc1cn([C@H]2C[C@@H]3[C@@H](COC(CCl)N3O)O2)c(=O)[nH]c1=O (stereo not given in full) | > 100 µM (inactive) | > 100 µM (inactive) | > 100 µM (inactive) | > 100 µM (inactive) | > 100 µM (inactive) | > 100 µM (inactive) | > 100 µM (inactive) | > 100 µM (inactive) | > 100 µM (inactive) | > 100 µM (inactive) | > 100 µM (inactive) | > 100 µM (inactive) | > 100 µM (inactive) | > 100 µM (inactive) | > 100 µM (inactive) | > 100 µM (inactive) | > 100 µM (inactive) | > 100 µM (inactive) | > 100 µM (inactive) | > 100 µM (inactive)
10 | CC(=O)O[C@@H]1C[C@@]2(C)[C@@H]3CC=C4[C@@H](C[C@H](O)C(=O)C4(C)C)[C@]3(C)C(=O)C[C@]2(C)[C@H]1[C@@](C)(O)C(=O)/C=C/C(C)(C)OC(C)=O | 1.47 µM (inactive) | 0.368 µM (active) | 0.592 µM (active) | 4.84 µM (inactive) | 3.21 µM (inactive) | 2.74 µM (inactive) | 3.64 µM (inactive) | 1.59 µM (inactive) | 1.61 µM (inactive) | 0.352 µM (active) | 0.0787 µM (active) | 1.08 µM (active) | 2.63 µM (inactive) | < 0.0251 µM (active) | 4.71 µM (inactive) | 4.81 µM (inactive) | 1.99 µM (inactive) | 0.594 µM (active) | 3.33 µM (inactive) | 0.957 µM (active)
11 | CCCC(=O)OC[n+]1ccc(-c2c(COC(=O)NC(C)C)c(COC(=O)NC(C)C)c3n2CCC3)cc1 | > 100 µM (inactive) | > 100 µM (inactive) | > 100 µM (inactive) | > 100 µM (inactive) | > 100 µM (inactive) | > 100 µM (inactive) | > 100 µM (inactive) | 92.7 µM (inactive) | 44.6 µM (inactive) | 51.9 µM (inactive) | > 100 µM (inactive) | > 100 µM (inactive) | 47 µM (inactive) | > 100 µM (inactive) | > 100 µM (inactive) | > 100 µM (inactive) | > 100 µM (inactive) | > 100 µM (inactive) | 41.5 µM (inactive) | > 100 µM (inactive)
12 | Cc1cccc(NC(=O)/C=C/c2ccc([N+](=O)[O-])cc2)c1 | > 37.2 µM (inactive) | 18.5 µM (inactive) | > 43.4 µM (inactive) | > 33.3 µM (inactive) | > 33.2 µM (inactive) | > 36.3 µM (inactive) | 29.8 µM (inactive) | 14.7 µM (inactive) | 16 µM (inactive) | > 34.6 µM (inactive) | > 41.5 µM (inactive) | 35 µM (inactive) | > 41.9 µM (inactive) | > 46.5 µM (inactive) | 48.1 µM (inactive) | 12.5 µM (inactive) | > 36.4 µM (inactive) | > 39 µM (inactive) | > 36.4 µM (inactive) | > 41.2 µM (inactive)
13 | C#CCn1ncc2c(SCc3ccccc3)ncnc21 | > 100 µM (inactive) | > 100 µM (inactive) | 50.7 µM (inactive) | > 100 µM (inactive) | > 100 µM (inactive) | > 100 µM (inactive) | > 100 µM (inactive) | 86.1 µM (inactive) | 79.8 µM (inactive) | > 100 µM (inactive) | > 100 µM (inactive) | > 100 µM (inactive) | > 100 µM (inactive) | > 100 µM (inactive) | > 100 µM (inactive) | > 100 µM (inactive) | 36.1 µM (inactive) | 70 µM (inactive) | 11.8 µM (inactive) | > 100 µM (inactive)
